Source: US11214803B2, “Modulators of YAP1 expression” (Ionis Pharmaceuticals, Inc., priority 2019, dated 2022)
Strand notation (5' to 3'): a small letter for the sugar, then the base; units joined by * are phosphorothioate-linked, units joined directly phosphodiester-linked; [ ] holds rarer units or linkages, { } end groups; capitals alone tell only the bases. e = 2'-O-(2-methoxyethyl) (MOE); k = constrained ethyl (cEt); [5mC] = 5-methylcytosine; d = 2'-deoxy (DNA); m = 2'-O-methyl

Assays:
Assay type in all cases: cell-based
[1] = system: Yap1 mRNA; test: Dose-dependent inhibition of human Yap1 in SNU-449 cells (Example 9, RTS36584); settings: free uptake; for % UTC (Yap1 mRNA): approximately 48 hours; for IC50: linear regression on a log/linear plot
Protocol: Modified oligonucleotides described in the studies above were tested at various doses in SNU-449 cells. Cultured SNU-449 cells at a density of 10,000 cells per well were treated using free uptake with modified oligonucleotides diluted to concentrations described in the tables below. After approximately 48 hours, Yap1 mRNA levels were measured as previously described using the Human Yap1 primer-probe set RTS36584. Yap1 mRNA levels were normalized to total RNA content, as measured by RIBOGREEN®. Results are presented in the tables below as percent control of the amount of Yap1 mRNA relative to untreated control cells (% UTC). IC50s were calculated using a linear regression on a log/linear plot of the data in excel.

[2] = system: Yap1 mRNA; test: Antisense inhibition of human Yap1 in A-431 cells by cEt gapmers, single dose (Example 3, RTS36584)
In short: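 Single-dose free-uptake screen of 3-10-3 cEt gapmers in A-431 cells at 2,000 nM over about 48 h. Values are % untreated control Yap1 mRNA.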

[3] = system: Yap1 mRNA; test: Antisense inhibition of human Yap1 in SNU-449 cells by modified oligonucleotides, single dose (Example 5, RTS36584)
In short: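 Plate SNU-449 cells at 10,000 per well; add 2,000 nM modified oligonucleotide without transfection reagent; after ~48 h isolate RNA, run qRT-PCR with RTS36584, normalise to RIBOGREEN and report % UTC.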

[4] = system: Yap1 mRNA; test: Dose-dependent inhibition of human Yap1 in A-431 cells (Example 8, 10,000 cells per well, RTS4814); settings: for Yap1 mRNA, % UTC: A-431 cells, 10,000 cells per well; for IC50 / % UTC (Yap1 mRNA): A-431 cells
In short: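 Yap1 mRNA, normalized to RIBOGREEN total RNA and expressed as % untreated control, was read with RTS4814 about 48 h after free-uptake oligonucleotide treatment of A-431 cells at 10,000 cells/well. IC50 derived by linear regression of log/linear data.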

[5] = Yap1 mRNA, percent of untreated control, modified oligonucleotides targeting SEQ ID NO: 1 and 2, Table 47
[6] = Table 13, A-431 cells, 5,000 cells per well, free uptake, 2,000 nM modified oligonucleotide, approx. 48 hours, RTS36584, normalized to RIBOGREEN, Yap1 mRNA relative to untreated control cells
[7] = Table 28, Yap1 mRNA as percent of untreated control, 3-10-3 cEt gapmers targeting SEQ ID NO.: 1, and 2
[8] = 31.3 nM, free uptake, approximately 48 hours, RTS4814
[9] = 125.0 nM, free uptake, approximately 48 hours, RTS4814
[10] = 500.0 nM, free uptake, approximately 48 hours, RTS4814
[11] = 2000.00 nM, free uptake, approximately 48 hours, RTS4814
[12] = free uptake, approximately 48 hours, RTS4814, linear regression on log/linear plot
[13] = Table 27, Yap1 mRNA by 3-10-3 cEt gapmers targeting SEQ ID NO.: 1, and 2, percent of untreated control
[14] = Table 26, Yap1 mRNA by 3-10-3 cEt gapmers targeting SEQ ID NO.: 1, and 2, percent of untreated control
[15] = Table 35, Yap1 mRNA as percent of untreated control, 3-10-3 cEt gapmers targeting SEQ ID NO: 1 and 2, single dose

Substance	% UTC (Yap1 mRNA) ([1]; 31.3 nM) [% UTC]	% UTC (Yap1 mRNA) ([1]; 125.0 nM) [% UTC]	% UTC (Yap1 mRNA) ([1]; 500.0 nM) [% UTC]	% UTC (Yap1 mRNA) ([1]; 2000.00 nM) [% UTC]	IC50 [1] [nM]	Yap1 mRNA, % UTC [4, 8] [% UTC]	Yap1 mRNA, % UTC [4, 9] [% UTC]	Yap1 mRNA, % UTC [4, 10] [% UTC]	Yap1 mRNA, % UTC [4, 11] [% UTC]	IC50 [4, 12] [nM]	also measured
1198554 (kT*kT*kA*dG*dA*dG*dT*dA*dT*dG*dT*dG*kG*k[5mC]*kA*eA; antisense) [compound 1198554]	72	46	22	8	100						
1200803 (kG*kG*kT*dA*dT*mA*dA*d[5mC]*dT*dG*dG*dG*d[5mC]*kA*kA*kA; antisense) [compound 1200803]	72	52	34	18	200						
1198546 (kG*kA*kA*dA*dT*dT*dG*dT*d[5mC]*dT*d[5mC]*dA*kT*kG*k[5mC]*e[5mC]) [compound 1198546]	70	42	18	6	100						
1198287 (kA*kA*kA*dT*dT*dG*dT*d[5mC]*dT*d[5mC]*dA*dT*kG*e[5mC]*k[5mC]*eT; antisense) [compound 1198287]	95	68	36	16	300						
1198724 (kA*eG*kA*dG*dT*dA*dT*dG*dT*dG*dG*d[5mC]*eA*eA*kT*kA; antisense) [compound 1198724]	56	25	8	3	< 30						
1198243 (kG*kA*dT*dT*dT*dA*dG*dG*dA*dT*dG*e[5mC]*eA*eT*kG*kG; antisense) [compound 1198243]	55	28	10	5	< 30						
1198555 (kA*kT*kT*dA*dG*dA*dG*dT*dA*dT*dG*dT*kG*kG*k[5mC]*eA; antisense) [compound 1198555]	73	40	19	9	100						
1198295 (kT*kA*kG*dA*dG*dT*dA*dT*dG*dT*dG*dG*k[5mC]*eA*kA*eT; antisense) [compound 1198295]	82	47	19	8	100						
958497 (kA*kT*kA*dT*dG*dG*dA*dA*dA*dT*dT*dG*dT*k[5mC]*kT*k[5mC]) [Compound 958497]											YAP1 (% UTC) ([2]; Table 10, A-431 cells, 5,000 cells per well, free uptake, 2,000 nM oligonucleotide, approx. 48 hours, primer probe set RTS36584, Yap1 mRNA normalized to RIBOGREEN, percent of untreated control): 1 % UTC; YAP1 (% UT) [3, 5]: 20 % UT
958590 (kA*kG*kG*dT*dA*dT*dA*dA*d[5mC]*dT*dG*dG*dG*k[5mC]*kA*kA) [Compound 958590]											YAP1 (% UTC) [2, 6]: 2 % UTC; YAP1 (% UT) ([3]; Table 48, Yap1 mRNA level relative to untreated control, modified oligonucleotides targeting SEQ ID NO.: 1 and 2): 18 % UT
958500 (kT*k[5mC]*kT*dA*dT*dA*dT*dT*dA*dG*dA*dG*dT*kA*kT*kG) [Compound 958500]											YAP1 (% UTC) [2, 6]: 5 % UTC; YAP1 (% UT) [3, 5]: 53 % UT
1076366 (antisense kA*kT*kT*dT*dA*d[5mC]*dA*dT*dG*dA*dG*dA*dG*kG*kA*kG) [compound 1076366]						63	25	8	4	40	YAP1 (% UTC) [2, 7]: 4 % UTC
1076461 (kG*kA*kT*dT*dA*dA*dT*dA*dT*dA*dG*d[5mC]*d[5mC]*k[5mC]*k[5mC]*kT; antisense) [compound 1076461]						65	24	7	3	40	YAP1 (% UTC) [2, 13]: 3 % UTC
1076396 (antisense k[5mC]*kT*kA*dT*dA*dT*dT*dT*dG*dA*dG*d[5mC]*d[5mC]*kA*kT*kG) [compound 1076396]						64	22	5	3	40	YAP1 (% UTC) [2, 14]: 2 % UTC
1076077 (kG*kG*kA*dT*dT*dA*dA*dA*dG*dT*dT*dT*dT*k[5mC]*kA*k[5mC]; antisense) [compound 1076077]						53	19	9	5	< 20	YAP1 (% UTC) [2, 13]: 5 % UTC
1075893 (antisense k[5mC]*kG*kT*dG*dA*dA*dA*dA*dA*dG*dA*dT*dG*kT*kG*kG) [compound 1075893]											YAP1 (% UTC) [2, 15]: 7 % UTC; % UTC (Yap1 mRNA) ([4]; 31.3 nM): 80 % UTC; % UTC (Yap1 mRNA) ([4]; 125.0 nM): 29 % UTC; % UTC (Yap1 mRNA) ([4]; 500.0 nM): 11 % UTC; % UTC (Yap1 mRNA) ([4]; 2000.00 nM): 8 % UTC; IC50 ([4]; Yap1 mRNA): 100 nM
1074222 (antisense kA*kG*kG*dA*dA*dT*dG*dA*dG*d[5mC]*dT*d[5mC]*dG*kA*kA*k[5mC]) [compound 1074222]						59	21	8	5	< 20	YAP1 (% UTC) [2, 7]: 5 % UTC
1076084 (k[5mC]*kA*kT*d[5mC]*dA*dA*dT*dA*dG*dA*dG*dA*dG*kT*k[5mC]*kG; antisense) [compound 1076084]											YAP1 (% UTC) ([2]; Table 34, Yap1 mRNA as percent of untreated control, 3-10-3 cEt gapmers targeting SEQ ID NO: 1 and 2, single dose): 7 % UTC; % UTC (Yap1 mRNA) ([4]; 31.3 nM): 69 % UTC; % UTC (Yap1 mRNA) ([4]; 125.0 nM): 34 % UTC; % UTC (Yap1 mRNA) ([4]; 500.0 nM): 12 % UTC; % UTC (Yap1 mRNA) ([4]; 2000.00 nM): 8 % UTC; IC50 ([4]; Yap1 mRNA): 100 nM
1074477 (kG*kT*kT*d[5mC]*d[5mC]*dG*dA*d[5mC]*dA*dA*dA*dA*d[5mC]*k[5mC]*kA*kA; antisense) [compound 1074477]						77	48	20	12	100	YAP1 (% UTC) [2, 13]: 10 % UTC
1074413 (kA*k[5mC]*kT*dG*dT*dG*dA*dA*dA*dG*dA*dG*dG*kT*k[5mC]*kA; antisense) [compound 1074413]						50	19	6	3	< 20	YAP1 (% UTC) [2, 13]: 4 % UTC
1075052 (antisense kA*kT*kA*dT*dA*dT*dA*d[5mC]*dT*dT*dG*dA*dT*k[5mC]*k[5mC]*kA) [compound 1075052]						40	10	4	4	< 20	YAP1 (% UTC) [2, 14]: 3 % UTC
1075797 (kG*kA*kT*dA*dA*dT*d[5mC]*dA*dT*dG*dA*dT*dA*k[5mC]*kT*k[5mC]; antisense) [compound 1075797]											YAP1 (% UTC) [2, 15]: 3 % UTC; % UTC (Yap1 mRNA) ([4]; 31.3 nM): 43 % UTC; % UTC (Yap1 mRNA) ([4]; 125.0 nM): 11 % UTC; % UTC (Yap1 mRNA) ([4]; 500.0 nM): 4 % UTC; % UTC (Yap1 mRNA) ([4]; 2000.00 nM): 3 % UTC; IC50 ([4]; Yap1 mRNA): < 20 nM
1074549 (DNA kT*kA*kT*d[5mC]*dT*dA*d[5mC]*d[5mC]*dG*dT*dA*dT*dG*k[5mC]*k[5mC]*k[5mC]; antisense) [compound 1074549]											YAP1 (% UTC) [2, 15]: 6 % UTC; % UTC (Yap1 mRNA) ([4]; 31.3 nM): 67 % UTC; % UTC (Yap1 mRNA) ([4]; 125.0 nM): 31 % UTC; % UTC (Yap1 mRNA) ([4]; 500.0 nM): 12 % UTC; % UTC (Yap1 mRNA) ([4]; 2000.00 nM): 7 % UTC; IC50 ([4]; Yap1 mRNA): 100 nM
